For one assay, the system named is Pythium ultimum. The assay can be described thus: Mycelial growth test. The format is cell-based. Conditions: Globisporangium ultimum, 72 h, PU, read-out: Percent Fungus Growth Inhibition.
The subject of the next assay is Fusarium solani. The assay can be described thus: Mycelial growth test. Conditions: Fusarium solani, 72 h; for inhibition at 5 ppm / inhibition at 10 ppm / inhibition at 20 ppm: PS, 72 hours, read-out: Percent Fungus Growth Inhibition; for inhibition at 40 ppm: read-out: Percent Fungus Growth Inhibition, PS, 40 ppm, 72 hours. The format is cell-based.

Molecules are shown by their SMILES.

Take `O=c1c(Cl)nsnc1Oc1ccc(Cl)cc1Cl` [Compound 17, 3-chloro-5-(2,4-dichlorophenoxy)-4H--1,2,6-thiadiazin-4-one]: in the assay with Pythium ultimum, the inhibition at 5 ppm worked out at 42%, the inhibition at 10 ppm was found to be 80%, the inhibition at 20 ppm amounted to 100% and the inhibition at 40 ppm turned out to be 100%. Also, in the assay with Fusarium solani, the inhibition at 5 ppm worked out at 50%, the inhibition at 10 ppm turned out to be 75%, the inhibition at 20 ppm amounted to 100% and the inhibition at 40 ppm is 100%.
Turning to `O=c1c(Cl)nsnc1Oc1c(Cl)cccc1Cl` [Compound 18, 3-chloro-5-(2,6-dichlorophenoxy)-4H--1,2,6-thiadiazin-4-one], in the assay with Pythium ultimum, the inhibition at 5 ppm came to 13%, the inhibition at 10 ppm was 60%, the inhibition at 20 ppm turned out to be 100% and the inhibition at 40 ppm came out at 100%. Besides, in the assay with Fusarium solani, the inhibition at 5 ppm amounted to 41%, the inhibition at 10 ppm was found to be 50%, the inhibition at 20 ppm worked out at 75% and the inhibition at 40 ppm turned out to be 75%.
`O=c1c(Cl)nsnc1Oc1cccc(Cl)c1Cl` [Compound 19, 3-chloro-5-(2,3-dichlorophenoxy)-4H--1,2,6-thiadiazin-4-one]: in the assay on Pythium ultimum, the inhibition at 5 ppm worked out at 20%, the inhibition at 10 ppm turned out to be 80%, the inhibition at 20 ppm is 100% and the inhibition at 40 ppm amounted to 100%. Moreover, in the assay with Fusarium solani, the inhibition at 5 ppm was 50%, the inhibition at 10 ppm is 66%, the inhibition at 20 ppm turned out to be 81% and the inhibition at 40 ppm was determined as 100%.
For the molecule `O=c1c(Cl)nsnc1Oc1cc(Cl)cc(Cl)c1` [Compound 20, 3-chloro-5-(3,5-dichlorophenoxy)-4H--1,2,6-thiadiazin-4-one], in the assay with Pythium ultimum, the inhibition at 5 ppm worked out at 53%, the inhibition at 10 ppm stood at 91%, the inhibition at 20 ppm is 91% and the inhibition at 40 ppm stood at 100%. Moreover, in the assay with Fusarium solani, the inhibition at 5 ppm stood at 59%, the inhibition at 10 ppm worked out at 66%, the inhibition at 20 ppm is 100% and the inhibition at 40 ppm was determined as 69%.
`Cc1cccc(Oc2nsnc(Cl)c2=O)c1` [Compound 21, 3-chloro-5-(3-methylphenoxy)-4H--1,2,6-thiadiazin-4-one]: in the assay on Pythium ultimum, the inhibition at 5 ppm was 27%, the inhibition at 10 ppm was 33%, the inhibition at 20 ppm came to 100% and the inhibition at 40 ppm was 100%. For the same molecule, in the assay on Fusarium solani, the inhibition at 5 ppm was determined as 33%, the inhibition at 10 ppm amounted to 62%, the inhibition at 20 ppm was 58% and the inhibition at 40 ppm is 100%.
For the molecule `Cc1ccccc1Oc1nsnc(Cl)c1=O` [Compound 22, 3-chloro-5-(2-methylphenoxy)-4H--1,2,6-thiadiazin-4-one], in the assay on Pythium ultimum, the inhibition at 5 ppm was determined as 20%, the inhibition at 10 ppm turned out to be 64%, the inhibition at 20 ppm was 96% and the inhibition at 40 ppm was 100%. Also, in the assay with Fusarium solani, the inhibition at 5 ppm was determined as 17%, the inhibition at 10 ppm amounted to 67%, the inhibition at 20 ppm amounted to 83% and the inhibition at 40 ppm was 100%.
For the molecule `Cc1ccc(Oc2nsnc(Cl)c2=O)c(C)c1` [Compound 23, 3-chloro-5-(2,4-dimethylphenoxy)-4H--1,2,6-thiadiazin-4-one], in the assay on Pythium ultimum, the inhibition at 5 ppm is 62%, the inhibition at 10 ppm was found to be 69%, the inhibition at 20 ppm turned out to be 71% and the inhibition at 40 ppm is 100%. Also, in the assay with Fusarium solani, the inhibition at 5 ppm is 17%, the inhibition at 10 ppm came out at 33%, the inhibition at 20 ppm is 100% and the inhibition at 40 ppm came out at 100%.
Take `Cc1cccc(C)c1Oc1nsnc(Cl)c1=O` [Compound 24, 3-chloro-5-(2,6-dimethylphenoxy)-4H--1,2,6-thiadiazin-4-one]: in the assay on Pythium ultimum, the inhibition at 5 ppm was 0%, the inhibition at 10 ppm turned out to be 47%, the inhibition at 20 ppm was 64% and the inhibition at 40 ppm stood at 100%. For the same molecule, in the assay on Fusarium solani, the inhibition at 5 ppm was 33%, the inhibition at 10 ppm is 83%, the inhibition at 20 ppm is 100% and the inhibition at 40 ppm was determined as 100%.
In the case of `Cc1cc(C)cc(Oc2nsnc(Cl)c2=O)c1` [Compound 25, 3-chloro-5-(3,5-dimethylphenoxy)-4H--1,2,6-thiadiazin-4-one], in the assay with Pythium ultimum, the inhibition at 5 ppm is 0%, the inhibition at 10 ppm is 47%, the inhibition at 20 ppm turned out to be 100% and the inhibition at 40 ppm came out at 100%. In addition, in the assay with Fusarium solani, the inhibition at 5 ppm turned out to be 50%, the inhibition at 10 ppm amounted to 100%, the inhibition at 20 ppm amounted to 100% and the inhibition at 40 ppm came to 100%.

The values are drawn from US4450269A, “Mono-5-substituted-3-chloro-4H-1,2,6-thiadiazin-4-one antifungal agents” (FMC Corporation, priority 1980, dated 1984).
